Measurements reported in patent US12612360B2 (Sanofi, priority 2020, dated 2026).

Target: T1, ERα (Homo sapiens, UniProt P03372)
T1 construct: host or cells: MCF7
T1 sequence (P03372 1-595): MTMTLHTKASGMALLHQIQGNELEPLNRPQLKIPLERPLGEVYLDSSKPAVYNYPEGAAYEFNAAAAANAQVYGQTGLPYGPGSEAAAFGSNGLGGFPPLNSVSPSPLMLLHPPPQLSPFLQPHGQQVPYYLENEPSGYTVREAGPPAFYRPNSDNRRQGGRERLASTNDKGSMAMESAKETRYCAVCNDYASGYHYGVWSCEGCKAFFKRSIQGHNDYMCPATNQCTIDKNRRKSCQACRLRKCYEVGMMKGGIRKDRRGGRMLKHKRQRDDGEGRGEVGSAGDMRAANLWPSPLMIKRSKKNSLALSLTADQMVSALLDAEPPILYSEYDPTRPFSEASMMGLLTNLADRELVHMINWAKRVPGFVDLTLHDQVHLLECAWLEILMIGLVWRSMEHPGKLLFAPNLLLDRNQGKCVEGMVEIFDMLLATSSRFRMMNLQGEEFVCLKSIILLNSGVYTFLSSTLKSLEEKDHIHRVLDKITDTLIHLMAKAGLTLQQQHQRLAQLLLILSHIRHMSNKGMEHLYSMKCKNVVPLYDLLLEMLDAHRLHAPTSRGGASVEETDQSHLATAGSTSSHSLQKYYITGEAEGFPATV
Assay: Estrogen receptor degradation activity: breast cancer cell ERα in cell western assay (MCF7 cells)
Type: cell-based
Conditions: for % Degradation At 0.3 μM: 4 hours, relative to fulvestrant 0.1 μM positive control; for DC50: 4 hours post compound addition, concentration which degrades 50% of the estrogen receptor, read-out: Degradation IC50
Description: Test: Estrogen Receptor Degradation Activity Said test involves measuring the in vitro degradation activity of the compounds of the Table 1a. The measurements of the degradation activities were made using a breast cancer cell ERα in cell western assay as described hereunder. MCF7 cells (ATCC) were seeded in 384 wells microplate (collagen coated) at a concentration of 10000 cells/30 μL per well in red phenol free MEM alpha medium (invitrogen) containing 5% charcoal dextran striped FBS. The following day, 9 points serial 1:5 dilution of each compound was added to the cells in 2.5 μL at final concentrations ranging from […] (in table 2), or 0.1 μM for fulvestrant (using as positive control). At 4 hours post compound addition the cells were fixed by adding 25 μL of formalin (final concentration 5% formalin containing 0.1% triton) for 10 minutes at room temperature and then washed twice with PBS. Then, 50 μL of LI-COR blocking buffer containing 0.1% Triton was added to plate for 30 minutes at room temperature. LI-COR blocking buffer was removed and cells were incubated overnight at cold room with 50 μL anti-ER rabbit monoclonal antibody (Thermo scientific MA1-39540) diluted at 1:1000 in LI-COR blocking buffer containing 0.1% tween-20. Wells which were treated with blocking buffer but no antibody were used as background control. Wells were washed twice with PBS (0.1% tween-20) and incubated at 37° C. for 60 minutes in LI-COR (0.1% tween-20) containing goat anti-rabbit antibody Alexa 488 (1:1000) and Syto-64 a DNA dye (2 μM final concentration). Cells were then washed 3 times in PBS and scanned in ACUMEN explorer (TTP-Labtech). Integrated intensities in the green fluorescence and red fluorescence were measured to determine the levels of ERα and DNA respectively. The degradation activity with respect to estrogen receptors in this test is given by the concentration which degrades 50% of the estrogen receptor (or IC50) in nM. […] DMSO−fulvestrant)).

% Degradation At 0.3 μM	DC50	SMILES
93%	0.5 nM	Cc1c(Cl)cccc1C1=C(c2ccc(C=C3CN(CCC(F)F)C3)cc2)c2ccc(C(=O)O)cc2CCC1 [Example 126, 8-(3-chloro-2-methylphenyl)-9-(4-((1-(3,3-difluoropropyl)azetidin-3-ylidene)methyl)phenyl)-6,7-dihydro-5H-benzo[7]annulene-3-carboxylic acid]
94%	0.3 nM	O=C(O)c1ccc2c(c1)CCCC(c1ccc(F)cc1F)=C2c1ccc(C=C2CN(CCCF)C2)c(F)c1 [Example 53, 8-(2,4-difluorophenyl)-9-(3-fluoro-4-((1-(3-fluoropropyl)azetidin-3-ylidene)methyl)phenyl)-6,7-dihydro-5H-benzo[7]annulene-3-carboxylic acid]
96%	0.3 nM	Cc1cc(F)ccc1C1=C(c2ccc(C=C3CN(CCCF)C3)cc2)c2ccc(C(=O)O)cc2CCC1 [Example 98, 8-(4-fluoro-2-methylphenyl)-9-(4-((1-(3-fluoropropyl)azetidin-3-ylidene)methyl)phenyl)-6,7-dihydro-5H-benzo[7]annulene-3-carboxylic acid]
85%	0.2 nM	Oc1ccc2c(c1)CCCC(c1ccc(Cl)cc1Cl)=C2c1ccc(C=C2CN(CCCF)C2)cc1 [Example 170, 8-(2,4-dichlorophenyl)-9-(4-((1-(3-fluoropropyl)azetidin-3-ylidene)methyl)phenyl)-6,7-dihydro-5H-benzo[7]annulen-3-ol]
92%	2.1 nM	Cc1cc(C#N)ccc1C1=C(c2ccc(C=C3CN(CCCF)C3)cc2)c2ccc(C(=O)O)cc2CCC1 [Example 84, 8-(4-cyano-2-methylphenyl)-9-(4-((1-(3-fluoropropyl)azetidin-3-ylidene)methyl)phenyl)-6,7-dihydro-5H-benzo[7]annulene-3-carboxylic acid]
98%	0.8 nM	O=C(O)c1ccc2c(c1)CCCC(c1cccc3c1CCC3)=C2c1ccc(C=C2CN(CCC(F)F)C2)cc1 [Example 163, 9-(4-((1-(3,3-difluoropropyl)azetidin-3-ylidene)methyl)phenyl)-8-(2,3-dihydro-1H-inden-4-yl)-6,7-dihydro-5H-benzo[7]annulene-3-carboxylic acid]
93%	0.2 nM	Cc1cc(F)ccc1C1=C(c2ccc(C=C3CN(CCC(F)F)C3)cc2)c2ccc(C(=O)O)cc2CCC1 [Example 19, 9-(4-((1-(3,3-difluoropropyl)azetidin-3-ylidene)methyl)phenyl)-8-(4-fluoro-2-methylphenyl)-6,7-dihydro-5H-benzo[7]annulene-3-carboxylic acid]
89%	0.5 nM	Cc1c(C2=C(c3ccc(F)cc3F)CCCc3cc(C(=O)O)ccc32)ccc(C=C2CN(CCCF)C2)c1F.Cl [Example 17, 8-(2,4-difluorophenyl)-9-(3-fluoro-4-((1-(3-fluoropropyl)azetidin-3-ylidene)methyl)-2-methylphenyl)-6,7-dihydro-5H-benzo[7]annulene-3-carboxylic acid hydrochloride]
90%	0.6 nM	O=C(O)c1ccc2c(c1)CCCC(c1ncc(F)cc1C(F)(F)F)=C2c1ccc(C=C2CN(CCCF)C2)cc1 [Example 18, 8-(5-fluoro-3-(trifluoromethyl)pyridin-2-yl)-9-(4-((1-(3-fluoropropyl)azetidin-3-ylidene)methyl)phenyl)-6,7-dihydro-5H-benzo[7]annulene-3-carboxylic acid]
79%	4.9 nM	Cc1cc(C2=C(c3ccc(Cl)cc3Cl)CCCc3cc(C(=O)O)ccc32)cc(C)c1C=C1CN(CCCF)C1.Cl [Example 104, 8-(2,4-dichlorophenyl)-9-(4-((1-(3-fluoropropyl)azetidin-3-ylidene)methyl)-3,5-dimethylphenyl)-6,7-dihydro-5H-benzo[7]annulene-3-carboxylic acid hydrochloride]
100%	27.8 nM	Cc1c(C2=C(c3ccc(C=C4CN(CCC(F)(F)F)C4)cc3)c3ccc(C(=O)O)cc3CCC2)ccc(F)c1F [Example 112, 8-(3,4-difluoro-2-methylphenyl)-9-(4-((1-(3,3,3-trifluoropropyl)azetidin-3-ylidene)methyl)phenyl)-6,7-dihydro-5H-benzo[7]annulene-3-carboxylic acid]
95%	0.2 nM	Cc1cccc(C)c1C1=C(c2ccc(C=C3CN(CCCF)C3)cc2)c2ccc(C(=O)O)cc2CCC1 [Example 97, 8-(2,6-dimethylphenyl)-9-(4-((1-(3-fluoropropyl)azetidin-3-ylidene)methyl)phenyl)-6,7-dihydro-5H-benzo[7]annulene-3-carboxylic acid]
93%	1.3 nM	O=C(O)c1ccc2c(c1)CCCC(c1cccc(Cl)c1C(F)(F)F)=C2c1ccc(C=C2CN(CCC(F)(F)F)C2)cc1 [Example 107, 8-(3-chloro-2-(trifluoromethyl)phenyl)-9-(4-((1-(3,3,3-trifluoropropyl)azetidin-3-ylidene)methyl)phenyl)-6,7-dihydro-5H-benzo[7]annulene-3-carboxylic acid]
93%	0.2 nM	O=C(O)c1ccc2c(c1)CCCC(c1cccc(C(F)(F)F)c1F)=C2c1ccc(C=C2CN(CCCF)C2)cc1 [Example 56, 8-(2-fluoro-3-(trifluoromethyl)phenyl)-9-(4-((1-(3-fluoropropyl)azetidin-3-ylidene)methyl)phenyl)-6,7-dihydro-5H-benzo[7]annulene-3-carboxylic acid]
94%	0.2 nM	Cc1c(F)cccc1C1=C(c2ccc(C=C3CN(CCCF)C3)cc2)c2ccc(C(=O)O)cc2CCC1 [Example 85, 8-(3-fluoro-2-methylphenyl)-9-(4-((1-(3-fluoropropyl)azetidin-3-ylidene)methyl)phenyl)-6,7-dihydro-5H-benzo[7]annulene-3-carboxylic acid]
97%	0.4 nM	O=C(O)c1ccc2c(c1)CCCC(c1ccc(F)cc1Cl)=C2c1ccc(C=C2CN(CCCF)C2)cc1 [Example 79, 8-(2-chloro-4-fluorophenyl)-9-(4-((1-(3-fluoropropyl)azetidin-3-ylidene)methyl)phenyl)-6,7-dihydro-5H-benzo[7]annulene-3-carboxylic acid]
86%	2.6 nM	O=C(O)c1ccc2c(c1)CCCC([C@H]1[C@@H]3CCCC[C@@H]31)=C2c1ccc(C=C2CN(CCCF)C2)cc1 [Example 174, 84(1R,6S,70-bicyclo[4.1.0]heptan-7-yl)-9-(4-((1-(3-fluoropropyl)azetidin-3-ylidene)methyl)phenyl)-6,7-dihydro-5H-benzo[7]annulene-3-carboxylic acid]
95%	0.3 nM	Cc1ccccc1C1=C(c2ccc(C=C3CN(CCCF)C3)cc2)c2ccc(C(=O)O)cc2CCC1 [Example 99, 9-(4-((1-(3-fluoropropyl)azetidin-3-ylidene)methyl)phenyl)-8-(o-tolyl)-6,7-dihydro-5H-benzo[7]annulene-3-carboxylic acid]
92%	0.9 nM	Cc1cc(C2=C(c3ccc(F)cc3F)CCCc3cc(C(=O)O)ccc32)cc(F)c1C=C1CN(CCCF)C1 [Example 27, 8-(2,4-difluorophenyl)-9-(3-fluoro-4-((1-(3-fluoropropyl)azetidin-3-ylidene)methyl)-5-methylphenyl)-6,7-dihydro-5H-benzo[7]annulene-3-carboxylic acid]
81%	3.7 nM	O=C(O)c1ccc2c(c1)CCCC(c1cc(Cl)cc(C(F)(F)F)c1)=C2c1ccc(C=C2CN(CCCF)C2)cc1 [Example 143, 8-(3-chloro-5-(trifluoromethyl)phenyl)-9-(4-((1-(3-fluoropropyl)azetidin-3-ylidene)methyl)phenyl)-6,7-dihydro-5H-benzo[7]annulene-3-carboxylic acid]
